Experimental data from article PMC8959600 (eLife, 2022).

How the values were obtained:
[1] = paediatric population, Tebipenem-Pivoxil PO; ref Sato et al., 2008; cited from earlier work
E. coli (EcDH5a) = experiment: Checkerboard synergy assay (FIC), laboratory isolate; assay type: cell-based, Escherichia coli
Procedure: (§1) Before initiating drug combination assays, the MIC values for both compounds were determined against Shigella (Sf2457T), Salmonella (St14028), and E. coli (EcDH5a) isolates. […] 20 μM moxifloxacin was used as negative control (100% bacterial growth inhibition) in one column and DMSO as positive control (100% bacterial growth). A total of 25 µl of 1 × 10^6 CFU/mL bacterial culture was added to each well of a 384-well plate (μClear; Greiner Bio‐One). Plates were incubated overnight at 37 °C. Next, 10 µl of resazurin were added and plates were incubated at room temperature for 3 hr. Bacterial growth inhibition was measured by fluorescence in a Envision plate reader (PerkinElmer). All assays were performed in duplicate. Combination studies with clinical isolates were performed in 96-well plates (Greiner) adding 200 μl of 1 × 10^6 CFU/mL bacterial culture and following the same checkboard titration method as described above. The range of final working concentrations of each antimicrobial was adjusted based on the MIC of each selected organism.
MICs were determined for drug A and drug B alone and in combination. […] The sum of FIC was expressed using the following equation: FIC = (MIC of drug A in combination / MIC of drug A alone) + (MIC of drug B in combination / MIC of drug B alone) ([Le Minh et al., 2015]; [Petersen et al., 2006]; [Hall et al., 1983]; [European Committee for Antimicrobial Susceptibility Testing (EUCAST) of the European Society of Clinical Microbiology and Infectious Dieases (ESCMID), 2000]).

[2] = Intestinal distribution by quantitative LC-MS in mice; assay type: in vivo; settings: for peak drug concentration: mice, oral 50 mg/kg Tebipenem pivoxil
Procedure: One animal was euthanised at 0.25, 0.5, 1, and 4 hr respectively and 2.5–3 cm sections of the intestine (duodenum, jejunum, ileum, caecum, and colon) were collected and frozen at –80 °C. For quantitative LCMS analysis of intestine homogenate, samples were thawed at ambient temperature, mixed with water (1:1) and homogenised by turrax (10 sec). Subsequently, 20 µL of homogenate were mixed with 200 µl of ACN: MeOH (80:20) and filtered using 0.2 µm filter plate (Whatman). LCMS analysis was performed as described in previous section. For MALDI imaging, 50 mm of the central part of each intestinal section were cut and mounted in a sample disc on dry ice with a solution of 1% methylcellulose (Sigma Aldrich, UK). Next, tissue sections of 12 µm (sagital sections) were obtained using a cryostat (Leica CM3600; Leica Microsystems Inc, Wetzlar, Germany) at –20 °C and collected in conductive-coated slides for MALDI Imaging (Bruker Daltonic). After the ‘MALDI’ section was obtained a consecutive section for histology was taken. Prior to matrix coating, samples for MALDI were optical scanned in a PathScanner. The matrix deposition was conducted in a sprayer ImagePrep System (Bruker Daltonic) which uses vibrational vaporisation technology. As matrix solution α-CHCA (α-Cyano-4-hydroxycinnamic acid (Sigma Aldrich) dissolved in 70:30 methanol/water (v/v) containing 0.2% TFA at 7 mg/mL was used. MALDI MSI data were obtained using a Bruker UltrafleXtream MALDI TOF/TOF (Bruker Daltonic, Germany)).

Campylobacter jejuni = experiment: MIC by micro dilution, clinical Campylobacter isolates from Vietnam; assay type: cell-based; settings: 75 Campylobacter jejuni from diarrhoeal cases in Vietnam; read-out: median MIC
Excerpt: (§2) Selected compounds, including Tebipenem, were profiled against a panel of […] clinical isolates of enteric pathogens comprised of Shigella (Vietnam and Kenya; n = 135), non-typhoidal Salmonella (Vietnam; n = 117), Campylobacter (Vietnam; n = 75), and various pathogenic E. coli species (Vietnam; n = 7) ([Butcher et al., 2014]). The antimicrobial susceptibility profile of these organisms is described in Supplementary file 1.
(§3) Compound screening and dose response assays have been described previously ([Van Voorhis et al., 2016]; [Wiegand et al., 2008]). Briefly, the selected bacteria were cultured on the Luria-Bertani agar overnight at 37 °C (Campylobacter isolates were grown in 2.5% Laked Horse Blood cation-adjusted Mueller Hinton medium (CAMHB, Sigma Aldrich) and incubated in microaerophilic conditions (10% CO2, 5% O2 and 85% N2) at 42 °C); colonies were added to sterile PBS to form 0.5 McFarland solutions. […] The activity of the chemical was recorded as being active (yes) or non-active (no) for each of the tested chemicals. A non-active result was recorded when there was no evidence of bacterial inhibition, and the culture area was indistinguishable from the negative control.
(§4) MICs were evaluated using the micro dilution assay in Müller Hinton broth using 1 mM chemical stock solutions, and a final concentration of 5 × 10^5 CFU/mL bacteria. […]

S. flexneri 2457T = experiment: Gnotobiotic piglet Shigella infection model, efficacy; assay type: in vivo; settings: 6-day experiment
[3] = system: invasive and non-invasive Salmonella isolates; experiment: Checkerboard synergy assay (FIC), clinical Salmonella isolates; assay type: cell-based; settings: in combination with azithromycin
Procedure: as §1
MICs were determined for drug A and drug B alone and in combination. […]

in vivo = settings: pig, po, 50 mg/kg
Procedure: Blood was collected from the jugular veins while manually restraining the piglets. […] Blood samples were centrifuged at 2,200 x g for 10 min at 4 °C. Plasma was extracted and stored at –80 °C. Pharmacokinetic analysis was performed as above described.

[4] = system: clinical isolates of Shigella; experiment: MIC by micro dilution, clinical Shigella isolates from Vietnam and Kenya; assay type: cell-based, Shigella spp.; settings: all clinical isolates of Shigella (82 Vietnam, 53 Kenya)
Excerpt: as §2, §3, §4

[5] = in combination with LpxC inhibitor PF-5081090
[6] = female, C57, mouse, duodenum and jejunum, po, 50 mg/kg, read-out: concentration in tissue

SMILES: C[C@@H](O)[C@H]1C(=O)N2C(C(=O)O)=C(SC3CN(C4=NCCS4)C3)[C@H](C)[C@H]12 [Tebipenem]
- AUC0-tlast [1]: 16000 ng·h/mL
- Cmax [1]: 7500 ng/mL
- interaction (FIC index) (E. coli (EcDH5a); [5]): partial synergy
- reduction of the MIC against Tebipenem (E. coli (EcDH5a); [5]): > 10 fold
- interaction (FIC index) (E. coli (EcDH5a); in combination with azithromycin): indifference or antagonism
- interaction (FIC index) (E. coli (EcDH5a); in combination with ceftriaxone): indifference or partial synergy
- interaction (FIC index) (E. coli (EcDH5a); in combination with ciprofloxacin): indifference or partial synergy
- interaction (FIC index) (E. coli (EcDH5a); in combination with mecillinam): indifference or partial synergy
- concentration at 15 min [2, 6]: > 300000 ng/g
- concentration at 240 min [2, 6]: > 400 ng/g
- peak drug concentration ([2]; caecum, after 60 min): 11 µg/g tissue
- peak drug concentration ([2]; colon, after 60 min): 6 µg/g tissue
- peak drug concentration ([2]; ileum, after 30 min): 15 µg/g tissue
- MIC (Campylobacter jejuni): < 0.1 µM
- weight gain vs vehicle-treated piglets (S. flexneri 2457T): not statistically significant
- FIC scores [3]: ~ 0.5
- AUC(0-t) (in vivo): 32000 ng·h/mL
- concentration at 6 hr (in vivo): 1000 ng/mL
- MIC values, range [4]: 0.04 to 0.3 µM
